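Cultured in 96-well plates, cells were exposed to test compound for 48 hours across five concentrations. GI50 is the concentration that inhibits growth by half.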 The source made the active and inactive calls. Rule as the data show it: active = GI50 up to about 1.1 µM and inactive = higher.
Tests used:
Assay in all cases: NCI-60 cell line screen, 48 h
OVCAR-8 = system: OVCAR-8
UACC-257 = system: UACC-257
OVCAR-3 = system: OVCAR-3
NCI-H460 = system: NCI-H460
ACHN = system: ACHN
A549 = system: A549
Malme-3M = system: Malme-3M
HCC 2998 = system: HCC 2998
OVCAR-4 = system: OVCAR-4
SK-MEL-5 = system: SK-MEL-5
M14 = system: M14
NCI-H522 = system: NCI-H522
HCT-15 = system: HCT-15
SN12C = system: SN12C
UO-31 = system: UO-31
SK-MEL-2 = system: SK-MEL-2
SF-268 = system: SF-268
HCT-116 = system: HCT-116
SK-OV-3 = system: SK-OV-3

Row | SMILES | GI50 (OVCAR-8) | GI50 (UACC-257) | GI50 (OVCAR-3) | GI50 (NCI-H460) | GI50 (ACHN) | GI50 (A549) | GI50 (Malme-3M) | GI50 (HCC 2998) | GI50 (OVCAR-4) | GI50 (SK-MEL-5) | GI50 (M14) | GI50 (NCI-H522) | GI50 (HCT-15) | GI50 (SN12C) | GI50 (UO-31) | GI50 (SK-MEL-2) | GI50 (SF-268) | GI50 (HCT-116) | GI50 (SK-OV-3)
1 | CCCCCNC(=O)C1C(=O)N(CCCCC)C(=O)/C1=N\N (centres undefined) | 49.2 µM (inactive) | > 100 µM (inactive) | 46.8 µM (inactive) | 78.5 µM (inactive) | 59.8 µM (inactive) | 77.6 µM (inactive) | > 100 µM (inactive) | 35.3 µM (inactive) | 61.8 µM (inactive) | 29 µM (inactive) | 57.9 µM (inactive) | 31.6 µM (inactive) | 59.2 µM | 54.2 µM (inactive) | 26.8 µM (inactive) | 35.2 µM (inactive) | 63.8 µM (inactive) | – | –
2 | CN1CC(C(=O)C2C(=O)c3ccccc3C2=O)C(=O)C(=O)C(C(=O)C2C(=O)c3ccccc3C2=O)C1 (centres undefined) | 77.6 µM (inactive) | > 100 µM (inactive) | > 10 µM (inactive) | > 100 µM (inactive) | > 100 µM (inactive) | > 100 µM (inactive) | > 100 µM (inactive) | > 100 µM (inactive) | – | – | > 10 µM (inactive) | > 100 µM (inactive) | > 100 µM | > 100 µM (inactive) | > 100 µM (inactive) | > 100 µM (inactive) | > 100 µM (inactive) | > 100 µM (inactive) | > 100 µM (inactive)
3 | O=C(O/N=C1/CCCC/C1=C\c1ccccc1)c1ccccc1 | 42.5 µM (inactive) | > 100 µM (inactive) | > 100 µM (inactive) | > 10 µM (inactive) | > 100 µM (inactive) | > 100 µM (inactive) | > 100 µM (inactive) | > 100 µM (inactive) | – | 0.146 µM (active) | > 100 µM (inactive) | 27.7 µM (inactive) | 84.3 µM | > 100 µM (inactive) | > 100 µM (inactive) | > 100 µM (inactive) | 33.3 µM (inactive) | 34 µM (inactive) | > 100 µM (inactive)
4 | C=CCc1cc(OC)c(O)c(C(=O)/C=C/c2ccc(OC)c(OC)c2)c1 | > 10 µM (inactive) | 19.3 µM (inactive) | 19.3 µM (inactive) | 30.1 µM (inactive) | 19.9 µM (inactive) | 28.9 µM (inactive) | 18.6 µM (inactive) | 21.8 µM (inactive) | 16.2 µM (inactive) | 15.3 µM (inactive) | 17 µM (inactive) | 1.86 µM (inactive) | – | – | 15.9 µM (inactive) | 13.3 µM (inactive) | 24.4 µM (inactive) | 14.5 µM (inactive) | 28.5 µM (inactive)
